Measured values taken from ChEMBL document CHEMBL4340506, “Inhibition of a viral prolyl hydroxylase” (Bioorg Med Chem, 2019).
Calls of active or inactive are those of the source. No cut-off for these calls is given here. Where a SMILES comes first, the peptide text is derived from it. [ ]: non-standard residue; d: D form. Hyp = O=C(O)[C@@H]1C[C@@H](O)CN1

Experiments:
Prolyl 4-hydroxylase = target: T1, Prolyl 4-hydroxylase (Paramecium bursaria Chlorella virus 1, UniProt Q84406); assay: Inhibition of N-terminal His6-tagged recombinant Paramecium bursaria chlorella virus 1 CPH expressed in Escherichia coli Rosetta 2 (DE3) cells pre-incubated for 5 mins before 2OG as substrate and Fe2 as co-factor addition in presence of L-ascorbate and measured after 5 mins MALDI TOF MS analysis
T1 sequence (Q84406 whole entry): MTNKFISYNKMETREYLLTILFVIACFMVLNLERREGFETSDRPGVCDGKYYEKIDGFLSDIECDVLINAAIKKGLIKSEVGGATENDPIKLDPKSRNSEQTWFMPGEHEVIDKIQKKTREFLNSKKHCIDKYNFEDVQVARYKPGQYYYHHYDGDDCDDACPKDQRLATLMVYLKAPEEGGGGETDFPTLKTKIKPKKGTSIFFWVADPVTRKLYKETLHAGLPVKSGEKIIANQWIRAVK

Egl nine homolog 1 = Egl nine homolog 1 (Homo sapiens, UniProt Q9GZT9); assay: Inhibition of recombinant human PHD2 by alphascreen assay
[1] = target: T2, Prolyl 4-hydroxylase (Paramecium bursaria Chlorella virus 1) (UniProt Q84406); assay: Substrate activity at N-terminal His6-tagged recombinant Paramecium bursaria chlorella virus 1 CPH expressed in Escherichia coli Rosetta 2 (DE3) cells assessed as succinate production at 500 uM incubated for 60 s in presence of 2OG and in absence of L-ascorbate and using Fe2 as cofactor by 1H NMR spectroscopy
T2 sequence (whole entry): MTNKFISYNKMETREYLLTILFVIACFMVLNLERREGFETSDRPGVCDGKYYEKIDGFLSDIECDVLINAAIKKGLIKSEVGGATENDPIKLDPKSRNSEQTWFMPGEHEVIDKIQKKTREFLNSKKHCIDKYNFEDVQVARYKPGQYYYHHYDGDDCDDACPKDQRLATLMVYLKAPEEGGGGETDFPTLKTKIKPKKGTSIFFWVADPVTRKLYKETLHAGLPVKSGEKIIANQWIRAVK

[2] = target: T2, Prolyl 4-hydroxylase (Paramecium bursaria Chlorella virus 1); assay: Substrate activity at N-terminal His6-tagged recombinant Paramecium bursaria chlorella virus 1 CPH expressed in Escherichia coli Rosetta 2 (DE3) cells assessed as substrate hydroxylation at 100 uM incubated for 16 hrs in presence of 2OG by MALDI TOF MS analysis
[3] = target: T2, Prolyl 4-hydroxylase (Paramecium bursaria Chlorella virus 1); assay: Substrate activity at N-terminal His6-tagged recombinant Paramecium bursaria chlorella virus 1 CPH expressed in Escherichia coli Rosetta 2 (DE3) cells assessed as substrate hydroxylation up to 1 mM incubated for 16 hrs in presence of 2OG by MALDI TOF MS analysis
[4] = target: T2, Prolyl 4-hydroxylase (Paramecium bursaria Chlorella virus 1); assay: Substrate activity at N-terminal His6-tagged recombinant Paramecium bursaria chlorella virus 1 CPH expressed in Escherichia coli Rosetta 2 (DE3) cells assessed as succinate production at 500 uM incubated for 60 s in presence of 2OG and L-ascorbate and using Fe2 as cofactor by 1H NMR spectroscopy
[5] = target: T3, Prolyl 3-hydroxylase OGFOD1 (Homo sapiens, UniProt Q8N543); assay: Inhibition of recombinant human OGFOD1 using 2OG as substrate and Fe2 as co-factor assessed as hydroxylation incubated for 15 mins in presence of L-ascorbate by MALDI-TOF MS analysis
T3 sequence (Q8N543 whole entry): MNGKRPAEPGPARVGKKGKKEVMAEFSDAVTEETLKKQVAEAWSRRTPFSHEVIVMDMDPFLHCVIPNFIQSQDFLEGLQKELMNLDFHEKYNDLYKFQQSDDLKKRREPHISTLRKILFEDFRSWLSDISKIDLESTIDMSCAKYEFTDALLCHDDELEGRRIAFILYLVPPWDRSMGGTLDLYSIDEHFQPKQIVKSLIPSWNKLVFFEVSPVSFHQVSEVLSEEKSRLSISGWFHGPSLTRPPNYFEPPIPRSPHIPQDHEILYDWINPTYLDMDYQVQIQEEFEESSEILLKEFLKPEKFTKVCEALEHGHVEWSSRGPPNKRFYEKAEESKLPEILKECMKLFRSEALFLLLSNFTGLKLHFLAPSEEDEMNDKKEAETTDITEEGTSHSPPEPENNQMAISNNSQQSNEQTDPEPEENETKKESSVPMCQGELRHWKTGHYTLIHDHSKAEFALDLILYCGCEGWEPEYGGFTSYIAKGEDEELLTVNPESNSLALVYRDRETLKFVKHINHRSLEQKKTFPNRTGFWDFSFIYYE

[6] = target: Hypoxia-inducible factor 1-alpha inhibitor (Homo sapiens, UniProt Q9NWT6); assay: Inhibition of recombinant human FIH using 2OG as substrate and Fe2 as co-factor assessed as hydroxylation incubated for 15 mins in presence of L-ascorbate by LC-MS analysis
[7] = target: T2, Prolyl 4-hydroxylase (Paramecium bursaria Chlorella virus 1); assay: Substrate activity at N-terminal His6-tagged recombinant Paramecium bursaria chlorella virus 1 CPH expressed in Escherichia coli Rosetta 2 (DE3) cells assessed as substrate hydroxylation incubated for 16 hrs in presence of 2OG and in absence of L-ascorbate by MALDI TOF MS analysis
[8] = target: T2, Prolyl 4-hydroxylase (Paramecium bursaria Chlorella virus 1); assay: Substrate activity at N-terminal His6-tagged recombinant Paramecium bursaria chlorella virus 1 CPH expressed in Escherichia coli Rosetta 2 (DE3) cells assessed as succinate production at 500 uM incubated for 60 s in presence of 2OG and using Fe2 as cofactor by 1H NMR spectroscopy
[9] = compound: C[C@H](NC(=O)[C@@H]1CCCN1)C(=O)N1CCC[C@H]1C(=O)N[C@@H](CCCCN)C(=O)N1C[C@H](O)C[C@H]1C(=O)N[C@@H](C)C(=O)N1CCC[C@H]1C(=O)N[C@@H](CCCCN)C(=O)O; assay: Substrate activity at N-terminal His6-tagged recombinant Paramecium bursaria chlorella virus 1 CPH expressed in Escherichia coli Rosetta 2 (DE3) cells assessed as substrate Km incubated for 16 hrs in presence of 2OG by MALDI TOF MS analysis
[10] = compound: C[C@H](NC(=O)[C@@H]1CCCN1)C(=O)N1C[C@H](O)C[C@H]1C(=O)N[C@@H](CCCCN)C(=O)N1CCC[C@H]1C(=O)N[C@@H](C)C(=O)N1CCC[C@H]1C(=O)N[C@@H](CCCCN)C(=O)O; assay: (§1) Substrate activity at N-terminal His6-tagged recombinant Paramecium bursaria chlorella virus 1 CPH expressed in Escherichia coli Rosetta 2 (DE3) cells assessed as Km(app) for Fe2 incubated for 16 hrs in presence of 2OG and Fe2 by MALDI TOF MS analysis
[11] = compound: C[C@H](NC(=O)[C@@H]1CCCN1)C(=O)N1CCC[C@H]1C(=O)N[C@@H](CCCCN)C(=O)N1C[C@H](O)C[C@H]1C(=O)N[C@@H](C)C(=O)N1CCC[C@H]1C(=O)N[C@@H](CCCCN)C(=O)O; assay: as §1
[12] = compound: C[C@H](NC(=O)[C@@H]1CCCN1)C(=O)N1C[C@H](O)C[C@H]1C(=O)N[C@@H](CCCCN)C(=O)N1CCC[C@H]1C(=O)N[C@@H](C)C(=O)N1CCC[C@H]1C(=O)N[C@@H](CCCCN)C(=O)O; assay: (§2) Substrate activity at N-terminal His6-tagged recombinant Paramecium bursaria chlorella virus 1 CPH expressed in Escherichia coli Rosetta 2 (DE3) cells assessed as Km(app) for ascorbate incubated for 16 hrs in presence of ascorbate, 2OG and Fe2 by MALDI TOF MS analysis
[13] = compound: C[C@H](NC(=O)[C@@H]1CCCN1)C(=O)N1CCC[C@H]1C(=O)N[C@@H](CCCCN)C(=O)N1C[C@H](O)C[C@H]1C(=O)N[C@@H](C)C(=O)N1CCC[C@H]1C(=O)N[C@@H](CCCCN)C(=O)O; assay: as §2
[14] = compound: C[C@H](NC(=O)[C@@H]1CCCN1)C(=O)N1C[C@H](O)C[C@H]1C(=O)N[C@@H](CCCCN)C(=O)N1CCC[C@H]1C(=O)N[C@@H](C)C(=O)N1CCC[C@H]1C(=O)N[C@@H](CCCCN)C(=O)O; assay: (§3) Substrate activity at N-terminal His6-tagged recombinant Paramecium bursaria chlorella virus 1 CPH expressed in Escherichia coli Rosetta 2 (DE3) cells assessed as Km for 2OG incubated for 16 hrs in presence of 2OG and Fe2 by MALDI TOF MS analysis
[15] = compound: C[C@H](NC(=O)[C@@H]1CCCN1)C(=O)N1CCC[C@H]1C(=O)N[C@@H](CCCCN)C(=O)N1C[C@H](O)C[C@H]1C(=O)N[C@@H](C)C(=O)N1CCC[C@H]1C(=O)N[C@@H](CCCCN)C(=O)O; assay: as §3
[16] = compound: C[C@H](NC(=O)[C@@H]1CCCN1)C(=O)N1CCC[C@H]1C(=O)N[C@@H](CCCCN)C(=O)N1C[C@H](O)C[C@H]1C(=O)N[C@@H](C)C(=O)N1CCC[C@H]1C(=O)N[C@@H](CCCCN)C(=O)O; assay: Substrate activity at N-terminal His6-tagged recombinant Paramecium bursaria chlorella virus 1 CPH expressed in Escherichia coli Rosetta 2 (DE3) cells assessed as substrate Kcat incubated for 16 hrs in presence of 2OG by MALDI TOF MS analysis

Chain of Egl nine homolog 1 (Q9GZT9 whole entry): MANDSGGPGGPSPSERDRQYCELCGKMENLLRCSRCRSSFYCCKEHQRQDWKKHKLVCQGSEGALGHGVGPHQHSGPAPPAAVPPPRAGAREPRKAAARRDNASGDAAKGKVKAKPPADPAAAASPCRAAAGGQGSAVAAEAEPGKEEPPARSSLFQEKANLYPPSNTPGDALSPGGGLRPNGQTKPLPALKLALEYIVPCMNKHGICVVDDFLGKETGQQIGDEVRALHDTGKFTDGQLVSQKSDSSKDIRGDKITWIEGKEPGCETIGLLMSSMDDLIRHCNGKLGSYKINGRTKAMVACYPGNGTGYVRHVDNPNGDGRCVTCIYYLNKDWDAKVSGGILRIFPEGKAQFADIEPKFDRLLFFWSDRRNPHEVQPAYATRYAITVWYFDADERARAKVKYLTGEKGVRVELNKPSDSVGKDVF
Chain of Hypoxia-inducible factor 1-alpha inhibitor (Q9NWT6 whole entry): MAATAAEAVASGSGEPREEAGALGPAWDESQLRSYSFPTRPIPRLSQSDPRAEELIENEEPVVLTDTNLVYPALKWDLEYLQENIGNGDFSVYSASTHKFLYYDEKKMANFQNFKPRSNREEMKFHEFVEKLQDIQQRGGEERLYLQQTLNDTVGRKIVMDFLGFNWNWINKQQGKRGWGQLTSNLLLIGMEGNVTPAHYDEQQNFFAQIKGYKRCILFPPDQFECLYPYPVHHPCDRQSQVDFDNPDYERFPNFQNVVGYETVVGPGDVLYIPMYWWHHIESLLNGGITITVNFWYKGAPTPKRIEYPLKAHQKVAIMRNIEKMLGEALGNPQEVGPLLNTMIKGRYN

Work on O=C(O)CNC(=O)c1c(O)c2ccccc2n(Cc2ccccc2)c1=O yielded an IC50 (Prolyl 4-hydroxylase) of 8.5 µM and an IC50 (Egl nine homolog 1) of 0.022 µM.

In the case of C[C@H](NC(=O)[C@@H]1CCCN1)C(=O)N1C[C@H](O)C[C@H]1C(=O)N[C@@H](CCCCN)C(=O)N1CCC[C@H]1C(=O)N[C@@H](C)C(=O)N1CCC[C@H]1C(=O)N[C@@H](CCCCN)C(=O)O (H-PA[Hyp]KPAPK-OH), the Activity [1] is reported as “inactive”, the Activity [2] is reported as “inactive” and the Activity [3] is reported as “inactive”. For the same molecule, the Activity [4] was “Active”.

Work on Cc1nc(C(=O)NCC(=O)O)c(O)c2ccc(Oc3ccccc3)cc12 [ROXADUSTAT] yielded an IC50 [5] of less than 1 µM, an IC50 (Prolyl 4-hydroxylase) of 5 µM and a Ki (Prolyl 4-hydroxylase) of 1.07 µM. The IC50 [6] was greater than 100 µM.

H-PAPKPAPK-OH was tested, and the Activity [7] was “inactive” and the Activity [8] was “Active”.

B1: Prolyl 4-hydroxylase (Paramecium bursaria Chlorella virus 1), Q84406 (protein)
chain: MTNKFISYNKMETREYLLTILFVIACFMVLNLERREGFETSDRPGVCDGKYYEKIDGFLSDIECDVLINAAIKKGLIKSEVGGATENDPIKLDPKSRNSEQTWFMPGEHEVIDKIQKKTREFLNSKKHCIDKYNFEDVQVARYKPGQYYYHHYDGDDCDDACPKDQRLATLMVYLKAPEEGGGGETDFPTLKTKIKPKKGTSIFFWVADPVTRKLYKETLHAGLPVKSGEKIIANQWIRAVK
B1 gave a Km [9] of 230 µM, a Km [10] of 0.9 µM and a Km [11] of 1.1 µM. The Km [12] was 1.7 µM, the Km [13] was 13.8 µM and the Km [14] was 29.5 µM. For the same molecule, the Km [15] was 27.4 µM and the kcat [16] was 52.1 s⁻¹.
